Source: ChEMBL document CHEMBL1155676, “Isolation and biochemical characterization of a new topoisomerase I inhibitor from Ocotea leucoxylon” (J Nat Prod, 2000)
pIC50: −log10 of the molar value. Calls of active or inactive are those of the source. No cut-off for these calls is given here.

Legend:
P388 [1] = assay: Cytotoxicity against mouse P388 cells by soft-agar colony-formation assay; format: functional, cell-based
P388 [2] = assay: Cytotoxicity against camptothecin-resistant mouse P388 cells by soft-agar colony-formation assay; format: functional, cell-based
Mus musculus = species on record: Mus musculus; assay: Cytotoxicity against mouse lung carcinoma cells upto 30 uM; format: functional, cell-based
COLO 205 = assay: Cytotoxicity against human COLO205 cells upto 30 uM; format: functional, cell-based
B16-F10 = assay: Cytotoxicity against mouse B16F10 cells upto 30 uM; format: functional, cell-based
Saccharomyces cerevisiae [3] = assay: Growth inhibition of Saccharomyces cerevisiae RS322 after 48 hrs by XTT assay; format: functional
Saccharomyces cerevisiae [4] = assay: Growth inhibition of Saccharomyces cerevisiae RS321 after 48 hrs by XTT assay; format: functional
Saccharomyces cerevisiae [5] = assay: Growth inhibition of Saccharomyces cerevisiae RJ03 after 48 hrs by XTT assay; format: functional
[6] = biological target: T1, DNA topoisomerase 1 (Homo sapiens) (UniProt P11387); assay: Induction of human recombinant topoisomerase 1-mediated pBR322 plasmid DNA cleavage assessed as increase in nicked form 2 at 100 uM after 60 mins
T1 sequence (whole entry): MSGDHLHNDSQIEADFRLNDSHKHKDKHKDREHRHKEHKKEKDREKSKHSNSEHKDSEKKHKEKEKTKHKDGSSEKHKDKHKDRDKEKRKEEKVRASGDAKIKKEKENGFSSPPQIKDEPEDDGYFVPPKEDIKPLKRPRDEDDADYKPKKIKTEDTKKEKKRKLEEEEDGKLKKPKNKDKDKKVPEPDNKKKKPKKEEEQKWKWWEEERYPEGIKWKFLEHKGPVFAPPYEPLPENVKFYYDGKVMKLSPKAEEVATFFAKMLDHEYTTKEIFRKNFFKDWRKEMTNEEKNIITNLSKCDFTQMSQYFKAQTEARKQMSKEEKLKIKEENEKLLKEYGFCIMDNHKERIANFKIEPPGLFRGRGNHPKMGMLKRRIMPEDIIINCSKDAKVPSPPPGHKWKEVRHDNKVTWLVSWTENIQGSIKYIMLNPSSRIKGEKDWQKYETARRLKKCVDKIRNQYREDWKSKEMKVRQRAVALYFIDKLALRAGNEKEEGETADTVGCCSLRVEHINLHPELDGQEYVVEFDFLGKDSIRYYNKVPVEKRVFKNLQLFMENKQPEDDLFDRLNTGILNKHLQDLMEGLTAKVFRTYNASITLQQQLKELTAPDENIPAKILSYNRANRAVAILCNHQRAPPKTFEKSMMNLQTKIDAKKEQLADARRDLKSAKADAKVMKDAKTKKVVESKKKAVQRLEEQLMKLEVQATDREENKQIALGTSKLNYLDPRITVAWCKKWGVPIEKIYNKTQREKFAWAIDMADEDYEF

[7] = biological target: T1, DNA topoisomerase 1 (Homo sapiens); assay: Inhibition of human recombinant DNA topoisomerase 1-mediated pBR322 DNA relaxation activity at 20 to 200 uM after 30 mins by gel electrophoresis
Bos taurus = species on record: Bos taurus; assay: Inhibition of calf thymus DNA topoisomerase 1-mediated supercoiled pSP64 plasmid DNA relaxation at 20 uM

Structure (SMILES): COc1cc2c(cc1OC)-c1c3c(cc4ccnc(c14)C2=O)OCO3 [DICENTRINONE]
- pIC50 (P388 [1]): 4.00
- pIC50 (P388 [2]): 4.00
- Activity (Mus musculus): Not toxic
- Activity (COLO 205): Not toxic
- Activity (B16-F10): Not toxic
- IC12 (Saccharomyces cerevisiae [3]): 49 µg/mL
- IC12 (Saccharomyces cerevisiae [4]): > 2000 µg/mL
- IC12 (Saccharomyces cerevisiae [5]): > 2000 µg/mL
- Activity [6]: 29%
- Activity [7]: inactive

Structure (SMILES): COc1cc2c(cc1OC)-c1c3c(cc4c1[C@H](C2)N(C)CC4)OCO3
- Activity (Saccharomyces cerevisiae [3]): inactive
- Activity (Saccharomyces cerevisiae [4]): inactive
- Activity (Saccharomyces cerevisiae [5]): inactive

Structure (SMILES): COc1cc2c[n+](C)c3c4cc5c(cc4ccc3c2cc1OC)OCO5
- Activity (Bos taurus): Active
